Values of other authors in PMC12181400, “Leveraging viral genome sequences and machine learning models for identification of potentially selective antiviral agents” (Communications Chemistry, 2025).
Like-named read-outs stand apart in the source and are kept apart here.

Legend:
Details in all cases: cited from earlier work
[1] = system: cell viability (tox21-car-agonist-p1)
[2] = system: cell viability (tox21-car-antagonist-p1)
[3] = system: cell viability (tox21-ar-mda-kb2-luc-antagonist-p2)
[4] = system: cell viability (tox21-ar-mda-kb2-luc-agonist-p3)
[5] = system: cell viability (tox21-ap1-agonist-p1)
[6] = system: cell viability (tox21-are-bla-p1)
[7] = curve rank −9 to 9, 0 = inactive, ref NCATS Tox21 public data browser

Nc1nc2ncc(CNc3ccc(C(=O)N[C@@H](CCC(=O)O)C(=O)O)cc3)nc2c(=O)[nH]1 [Folic acid]
0: tox21-car-agonist-p1-viability (curve rank) [1] | tox21-car-antagonist-p1-viability (curve rank) [2] | tox21-ar-mda-kb2-luc-antagonist-p2-viability (curve rank) [3] | tox21-ar-mda-kb2-luc-agonist-p3-viability (curve rank) [4] | tox21-ap1-agonist-p1-viability (curve rank) [5] | tox21-are-bla-p1-viability (curve rank) [6]

CCOC(=O)c1ncn2c1CN(C)C(=O)c1cc(F)ccc1-2 [Flumazenil]
0: tox21-car-agonist-p1-viability (curve rank) [1] | tox21-car-antagonist-p1-viability (curve rank) [2] | tox21-ar-mda-kb2-luc-antagonist-p2-viability (curve rank) [3] | tox21-ar-mda-kb2-luc-agonist-p3-viability (curve rank) [4] | tox21-ap1-agonist-p1-viability (curve rank) [5] | tox21-are-bla-p1-viability (curve rank) [6]

O=C1C(CC[S+]([O-])c2ccccc2)C(=O)N(c2ccccc2)N1c1ccccc1 (stereo not drawn) [Sulfinpyrazone]
0: tox21-car-agonist-p1-viability (curve rank) [1] | tox21-car-antagonist-p1-viability (curve rank) [2] | tox21-ar-mda-kb2-luc-antagonist-p2-viability (curve rank) [3] | tox21-ar-mda-kb2-luc-agonist-p3-viability (curve rank) [4] | tox21-ap1-agonist-p1-viability (curve rank) [5] | tox21-are-bla-p1-viability (curve rank) [6]

Nc1c2c(nc3ccccc13)CCCC2O.O=C(O)/C=C\C(=O)O (stereo not drawn) [Hydroxytacrine maleate]
0: tox21-car-agonist-p1-viability (curve rank) [1, 7] | tox21-car-antagonist-p1-viability (curve rank) [2, 7] | tox21-ar-mda-kb2-luc-antagonist-p2-viability (curve rank) [3, 7] | tox21-ar-mda-kb2-luc-agonist-p3-viability (curve rank) [4, 7] | tox21-ap1-agonist-p1-viability (curve rank) [5, 7] | tox21-are-bla-p1-viability (curve rank) [6, 7]

Cc1ncc([N+](=O)[O-])n1CC(O)CCl (stereo not drawn) [Ornidazole]
0: tox21-car-agonist-p1-viability (curve rank) [1] | tox21-car-antagonist-p1-viability (curve rank) [2] | tox21-ar-mda-kb2-luc-antagonist-p2-viability (curve rank) [3] | tox21-ar-mda-kb2-luc-agonist-p3-viability (curve rank) [4] | tox21-ap1-agonist-p1-viability (curve rank) [5] | tox21-are-bla-p1-viability (curve rank) [6]

CC1(C)S[C@@H]2[C@H](NC(=O)Cc3ccccc3)C(=O)N2[C@H]1C(=O)O.CC1(C)S[C@@H]2[C@H](NC(=O)Cc3ccccc3)C(=O)N2[C@H]1C(=O)O.c1ccc(CNCCNCc2ccccc2)cc1 [Benzathine penicillin G]
0: tox21-car-agonist-p1-viability (curve rank) [1, 7] | tox21-car-antagonist-p1-viability (curve rank) [2, 7] | tox21-ar-mda-kb2-luc-antagonist-p2-viability (curve rank) [3, 7] | tox21-ar-mda-kb2-luc-agonist-p3-viability (curve rank) [4, 7] | tox21-ap1-agonist-p1-viability (curve rank) [5, 7] | tox21-are-bla-p1-viability (curve rank) [6, 7]

NC(=O)OCC(COC(N)=O)c1ccccc1 [Felbamate]
0: tox21-car-agonist-p1-viability (curve rank) [1, 7] | tox21-car-antagonist-p1-viability (curve rank) [2, 7] | tox21-ar-mda-kb2-luc-antagonist-p2-viability (curve rank) [3, 7] | tox21-ar-mda-kb2-luc-agonist-p3-viability (curve rank) [4, 7] | tox21-ap1-agonist-p1-viability (curve rank) [5, 7] | tox21-are-bla-p1-viability (curve rank) [6, 7]

CCN[C@H]1CN(CCCOC)S(=O)(=O)c2sc(S(N)(=O)=O)cc21 [Brinzolamide]
0: tox21-car-agonist-p1-viability (curve rank) [1] | tox21-car-antagonist-p1-viability (curve rank) [2] | tox21-ar-mda-kb2-luc-antagonist-p2-viability (curve rank) [3] | tox21-ar-mda-kb2-luc-agonist-p3-viability (curve rank) [4] | tox21-ap1-agonist-p1-viability (curve rank) [5] | tox21-are-bla-p1-viability (curve rank) [6]

CC(C)(C)C(=O)OCOC(=O)[C@@H]1N2C(=O)[C@@H](NC(=O)[C@H](N)c3ccccc3)[C@H]2SC1(C)C [Pivampicillin]
0: tox21-car-agonist-p1-viability (curve rank) [1] | tox21-car-antagonist-p1-viability (curve rank) [2] | tox21-ar-mda-kb2-luc-antagonist-p2-viability (curve rank) [3] | tox21-ar-mda-kb2-luc-agonist-p3-viability (curve rank) [4] | tox21-ap1-agonist-p1-viability (curve rank) [5] | tox21-are-bla-p1-viability (curve rank) [6]

Cc1cc(C)cc(OCC2CNC(=O)O2)c1 (stereo not drawn) [Metaxalone]
0: tox21-car-agonist-p1-viability (curve rank) [1] | tox21-car-antagonist-p1-viability (curve rank) [2] | tox21-ar-mda-kb2-luc-antagonist-p2-viability (curve rank) [3] | tox21-ar-mda-kb2-luc-agonist-p3-viability (curve rank) [4] | tox21-ap1-agonist-p1-viability (curve rank) [5] | tox21-are-bla-p1-viability (curve rank) [6]

CCn1cc(C(=O)O)c(=O)c2cnc(N3CCNCC3)nc21 [Pipemidic acid]
0: tox21-car-agonist-p1-viability (curve rank) [1] | tox21-car-antagonist-p1-viability (curve rank) [2] | tox21-ar-mda-kb2-luc-antagonist-p2-viability (curve rank) [3] | tox21-ar-mda-kb2-luc-agonist-p3-viability (curve rank) [4] | tox21-ap1-agonist-p1-viability (curve rank) [5] | tox21-are-bla-p1-viability (curve rank) [6]
